What follows are compounds tested against P2X7 receptor (Homo sapiens (Human), UniProt Q99572) (assay: P2X7 FLIPR assay (BzATP-stimulated calcium fluorescence, antagonist IC50)). Conditions: not given.
Type: cell-based
Procedure: This example illustrates representative assays for use in evaluating the test compounds for antagonist activity. Compounds of the present invention were tested in vitro for their ability to act as antagonists to the P2X7receptor. […]
Cells were plated to cell density of approximately 15,000 cells/well in 384-well assay plates (50 μl/well) with 1.5% low serum media (DMEM, 1.5% FBS, 1% L-glut (2 mM), 10 mM HUES, 1% P/S). Cells were plated 24 hours prior to assay. Cells expressing human, rat or mouse P2X7 receptor were assayed in the following manner.
Fluo-4 NW dye mix (Molecular Probes, Inc., Eugene, Oreg., USA) was prepared in buffer (see manufacturer's instructions). Cell plates were removed from the 37° C. incubator, the media discarded and then 30 μL of dye was added to each well. Plates were placed in the 37° C., non-CO2 incubator for 30 minutes and then room temperature for 30 minutes.
Compound mixtures (A) were added to assay plates containing cells and placed at room temperature for 30 minutes, then BzATP (B) was added. Fluorescence was read using the Tetra FLIPR® (Molecular Devices, Inc., Sunnyvale, Calif., USA) and IC50 values were calculated by standard methods to determine antagonist activity.

Chain of P2X7 receptor (Q99572 whole entry): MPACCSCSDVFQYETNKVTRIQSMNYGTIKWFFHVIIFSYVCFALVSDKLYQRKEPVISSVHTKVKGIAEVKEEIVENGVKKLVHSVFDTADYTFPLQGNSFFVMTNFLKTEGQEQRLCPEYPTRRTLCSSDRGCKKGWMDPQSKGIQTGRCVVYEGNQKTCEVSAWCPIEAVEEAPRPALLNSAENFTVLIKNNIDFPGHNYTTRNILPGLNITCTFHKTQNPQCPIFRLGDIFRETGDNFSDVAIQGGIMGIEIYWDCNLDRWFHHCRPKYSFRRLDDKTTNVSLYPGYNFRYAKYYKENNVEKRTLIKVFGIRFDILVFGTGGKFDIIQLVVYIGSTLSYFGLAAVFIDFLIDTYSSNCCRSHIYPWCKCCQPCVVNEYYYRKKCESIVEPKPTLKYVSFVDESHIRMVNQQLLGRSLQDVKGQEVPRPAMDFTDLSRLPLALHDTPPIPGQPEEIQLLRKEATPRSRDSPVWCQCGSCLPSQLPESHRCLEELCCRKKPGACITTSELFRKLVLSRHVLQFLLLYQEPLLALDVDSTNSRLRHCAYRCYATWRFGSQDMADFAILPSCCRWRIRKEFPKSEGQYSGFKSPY

Row | SMILES | IC50
1 | Cc1c(C#N)cccc1C(=O)NCC1(c2ccc(C(F)(F)F)nc2)CCC(F)(F)CC1 [3-cyano-N-((4,4-difluoro-1-(6-(trifluoromethyl)pyridin-3-yl)cyclohexyl)methyl)-2-methylbenzamide] | 45 nM
2 | O=C(NCC(c1cnc(C(F)(F)F)nc1)C1CCC(F)(F)CC1)c1cccc(Cl)c1Cl (single isomer, unassigned; (-)) [(−)2,3-dichloro-N-[2-(4,4-difluorocyclohexyl)-2-[2-(trifluor] [(−)2,3-dichloro-N-[2-(4,4-difluorocyclohexyl)-2-[2-(trifluoromethyl)pyrimidin-5-yl]ethyl]benzamide] | 4.3 nM
3 | O=C(NCC(CC1CC1)c1ccc(C(F)(F)F)nc1)c1cccc(Cl)c1Cl (stereo not drawn) [2,3-dichloro-N-[3-cyclopropyl-2-[6-(trifluoromethyl)-3-pyrid] [2,3-dichloro-N-[3-cyclopropyl-2-[6-(trifluoromethyl)-3-pyridyl]propyl]benzamide] | 0.55 nM
4 | Cc1ncc(C(CNC(=O)c2ccccc2Cl)CC2(C(F)(F)F)CC2)cn1 (single isomer, unassigned; (+)) [(+)2-chloro-N-[2-(2-methylpyrimidin-5-yl)-3-[1-(trifluoromet] [(+)2-chloro-N-[2-(2-methylpyrimidin-5-yl)-3-[1-(trifluoromethyl)cyclopropyl]propyl]benzamide] | 130 nM
5 | O=C(NCC(CC1CC1)c1ccc(C(F)(F)F)nc1)c1c(Cl)cccc1Cl (single isomer, unassigned; (-)) [(−)2,6-dichloro-N-[3-cyclopropyl-2-[6-(trifluoromethyl)-3-py] [(−)2,6-dichloro-N-[3-cyclopropyl-2-[6-(trifluoromethyl)-3-pyridyl]propyl]benzamide] | 1.2 nM
6 | Cc1ncc(C2(C(C)NC(=O)c3cccc(F)c3Cl)CCOCC2)cn1 (stereo not drawn) [2-chloro-3-fluoro-N-[1-[4-(2-methylpyrimidin-5-yl)tetrahydropyran-4-yl]ethyl]benzamide] | 15 nM
7 | Cc1cn(C2(CNC(=O)c3cccc(Cl)c3Cl)CCC(F)(F)CC2)cn1 [2,3-dichloro-N-((4,4-difluoro-1-(4-methyl-1H-imidazol-1-yl)cyclohexyl)methyl)benzamide] | 90 nM
8 | COc1cccc(C(=O)NCC(CC2CC2)c2cnc(C(F)(F)F)nc2)c1Cl (single isomer, unassigned; (+)) [(+)2-chloro-N-[3-cyclopropyl-2-[2-(trifluoromethyl)pyrimidin] [(+)2-chloro-N-[3-cyclopropyl-2-[2-(trifluoromethyl)pyrimidin-5-yl]propyl]-3-methoxy-benzamide] | 14 nM
9 | O=C(NCC(CC1CC1)c1cnc(C(F)(F)F)nc1)c1cccc(Cl)c1Cl (single isomer, unassigned; (-)) [(−)2,3-dichloro-N-[3-cyclopropyl-2-[2-(trifluoromethyl)pyrim] [(−)2,3-dichloro-N-[3-cyclopropyl-2-[2-(trifluoromethyl)pyrimidin-5-yl]propyl]benzamide] | 0.86 nM
10 | O=C(NCC(CC1(C(F)(F)F)CC1)c1ccc(C(F)(F)F)nc1)c1cccc(F)c1Cl (single isomer, unassigned; (+)) [(+)2-chloro-3-fluoro-N-[3-[1-(trifluoromethyl)cyclopropyl]-2] [(+)2-chloro-3-fluoro-N-[3-[1-(trifluoromethyl)cyclopropyl]-2-[6-(trifluoromethyl)-3-pyridyl]propyl]benzamide] | 7.2 nM
11 | O=C(NCC(CC1(C(F)F)CC1)c1ccc(C(F)(F)F)nc1)c1cccc(Cl)c1Cl (stereo not drawn) [2,3-dichloro-N-[3-[1-(difluoromethyl)cyclopropyl]-2-[6-(trifluoromethyl)-3-pyridyl]propyl]benzamide] | 1.6 nM
12 | O=C(NCC(CC1(C(F)(F)F)CC1)c1ccc(C2CC2)nc1)c1ccccc1Cl (stereo not drawn) [2-chloro-N-[2-(6-cyclopropyl-3-pyridyl)-3-[1-(trifluoromethyl)cyclopropyl]propyl]benzamide] | 94 nM
13 | Cc1ncc(C2(CNC(=O)c3cccc(Cl)c3Cl)CCC(F)(F)CC2)cn1 [2,3-dichloro-N-[[4,4-difluoro-1-(2-methylpyrimidin-5-yl)cyclohexyl]methyl]benzamide] | 8.6 nM
14 | O=C(NCC(CC1CC1)c1cnc(C(F)(F)F)nc1)c1c(Cl)cccc1Cl (stereo not drawn) [2,6-dichloro-N-(3-cyclopropyl-2-(2-(trifluoromethyl)pyrimidi] [2,6-dichloro-N-(3-cyclopropyl-2-(2-(trifluoromethyl)pyrimidin-5-yl)propyl)benzamide] | 5.1 nM
15 | O=C(NCC(c1ccccc1)c1ccc(C(F)(F)F)nc1)c1ccc(Cl)cc1Cl (stereo not drawn) [2,4-dichloro-N-(2-phenyl-2-(6-(trifluoromethyl)pyridin-3-yl)ethyl)benzamide] | 25 nM
16 | O=C(NCC(CC1CC1)c1ccc(C(F)(F)F)nc1)c1cccc(C(F)(F)F)c1Cl (single isomer, unassigned; (-)) [(−)2-chloro-N-[3-cyclopropyl-2-[6-(trifluoromethyl)-3-pyridy] [(−)2-chloro-N-[3-cyclopropyl-2-[6-(trifluoromethyl)-3-pyridyl]propyl]-3-(trifluoromethyl)benzamide] | 110 nM
17 | Cc1cccc(C(=O)NCC2(c3ccc(F)nc3)CCC(F)(F)CC2)c1F [N-((4,4-difluoro-1-(6-fluoropyridin-3-yl)cyclohexyl)methyl)-2-fluoro-3-methylbenzamide] | 78 nM
18 | O=C(NCC(c1ccc(F)cc1)c1ccc(C(F)(F)F)nc1)c1cccc(Cl)c1Cl (single isomer, unassigned; (+)) [(+)2,3-dichloro-N-[2-(4-fluorophenyl)-2-[6-(trifluoromethyl)] [(+)2,3-dichloro-N-[2-(4-fluorophenyl)-2-[6-(trifluoromethyl)-3-pyridyl]ethyl]benzamide] | 12 nM
19 | Cc1ncc(C2(C(C)NC(=O)c3c(F)cccc3Cl)CCC(F)(F)CC2)cn1 (stereo not drawn) [2-chloro-N-[1-[4,4-difluoro-1-(2-methylpyrimidin-5-yl)cyclohexyl]ethyl]-6-fluoro-benzamide] | 1400 nM
20 | Cc1cccc(C(=O)NCC2(c3ccc(C(F)(F)F)nc3)CCC(F)(F)CC2)c1Cl [2-chloro-N-((4,4-difluoro-1-(6-(trifluoromethyl)pyridin-3-yl)cyclohexyl)methyl)-3-methylbenzamide] | 0.54 nM
21 | CC(C)(O)c1ccc(C2(CNC(=O)c3cccc(Cl)c3Cl)CCC(F)(F)CC2)cn1 [2,3-dichloro-N-[[4,4-difluoro-1-[6-(1-hydroxy-1-methyl-ethyl)-3-pyridyl]cyclohexyl]methyl]benzamide] | 23 nM
22 | COc1ccc(C2(CNC(=O)c3cccc(Cl)c3Cl)CCC(F)(F)CC2)cn1 [2,3-dichloro-N-((4,4-difluoro-1-(6-methoxypyridin-3-yl)cyclohexyl)methyl)benzamide] | 0.96 nM
23 | Cc1ncc(C(CNC(=O)c2cccc(F)c2Cl)C2CCC(F)(F)CC2)cn1 (stereo not drawn) [2-chloro-N-[2-(4,4-difluorocyclohexyl)-2-(2-methylpyrimidin-5-yl)ethyl]-3-fluoro-benzamide] | 83 nM

Same assay, conditions: listed as (+)2-chloro-N-[3-cyclopropyl-2-(6-fluoro-3-pyridyl)propyl]benzamide

Row | SMILES | IC50
24 | O=C(NCC(CC1CC1)c1ccc(F)nc1)c1ccccc1Cl (single isomer, unassigned; (+)) [Example 4w, (+)-2-chloro-N-(3-cyclopropyl-2-(6-fluoropyridin-3-A)propyl)benzamide] | 510 nM

From patent US9102591B2, “Benzamides” (H. Lundbeck A/S, priority 2012, dated 2015)
